Consider 72 compounds from patent US10278942B2 (PELOTON THERAPEUTICS, INC., priority 2015, dated 2019).

pIC50: −log10 of the molar value.

One experiment deals with T1, HIF-2α HIS TAG-PASB Domain (Homo sapiens, UniProt Q99814).
T1 construct: 100 nM HIF-2α HIS TAG-PASB Domain
T1 sequence (Q99814 240-350 limits assumed): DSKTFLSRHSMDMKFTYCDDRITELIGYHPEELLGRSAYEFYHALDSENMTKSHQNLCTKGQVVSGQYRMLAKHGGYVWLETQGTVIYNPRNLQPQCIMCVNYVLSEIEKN
Description: HIF-2α Scintillation Proximity Assay (SPA). To be noted: Scintillation Proximity Assay IC50 (nM). The experiment is classed as binding. In a few lines: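 IC50 values rest on percent inhibition, where the sample signal is scaled between high and low controls. Wells contain about 100 μL: compound dispensed as 2 μL of DMSO solution, 88 μL protein-probe mix and 10 μL of beads.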
The IC50 is the concentration that gives 50% inhibition. A high value points to a need for much substance. As for `O=S(=O)(c1ccc(Oc2cc(F)cc(Cl)c2)c(CO)c1)C(F)(F)F` [Compound 122], the IC50 was > 1000 nM.

In the case of `N#Cc1cc(F)cc(Oc2ccc3c(c2C(F)F)C(=O)C(F)(F)S3(=O)=O)c1` [Compound 385], the IC50 was > 1000 nM.

With `O=Cc1cc(S(=O)(=O)C(F)(F)F)ccc1Oc1cc(F)cc(Cl)c1` [Compound 123], the IC50 was < 50 nM.

Staying with this experiment, now noted: read-out: Scintillation Proximity Assay IC50.
A word on the pIC50: it is the negative decadic logarithm of the IC50, by convention in mol/L. Turning to `O=S(=O)(c1ccc(Oc2cc(F)cc(Cl)c2)c(CCCO)c1)C(F)(F)F` [Compound 126], the pIC50 was < 6.00.

Take `CS(=O)(=O)c1ccc(Oc2cncc(Cl)c2)c2c1[C@H](O)C(F)(F)[C@@H]2F` [Compound 331]: the pIC50 was > 7.30.

`C=CC1(O)c2c(ccc(Oc3cc(F)cc(C#N)c3)c2C#N)S(=O)(=O)C1(F)F` (stereo not drawn) [Compound 460]: the pIC50 is < 6.00.

On to `COCCNC1c2c(ccc(Oc3cc(F)cc(C#N)c3)c2C(F)F)S(=O)(=O)C1(F)F` (stereo not drawn) [Compound 382], for which the pIC50 is < 6.00.

`CS(=O)(=O)c1ccc(OCCC2(C#N)CC2)c2c1[C@H](O)C(F)(F)[C@@H]2F` [Compound 772]: the pIC50 was < 6.00.

On to `O=S1(=O)CCc2c1ccc(Oc1cc(F)cc(Cl)c1)c2Br` [Compound 350], for which the pIC50 was < 6.00.

With `O=S1(=O)C[C@H](O)c2c1ccc(Oc1cccc(F)c1)c2Br` [Compound 419], the negative-log IC50 (pIC50) was < 6.00.

As for `O=S(=O)(c1ccc(OCCO)c2c1C(O)CC2)C(F)(F)F` (stereo not drawn) [Compound 613], the pIC50 is < 6.00.

Take `O=S(=O)(c1ccc(Oc2cncc(Cl)c2)c2c1[C@H](O)CC2)C(F)(F)F` [Compound 184]: the pIC50 was 6.00 to 6.60.

Consider `Cc1c(Cl)cccc1Oc1ccc(S(=O)(=O)C(F)(F)F)cc1Br` [Compound 171], for which the pIC50 is < 6.00.

On to `COC(=O)C(C)Oc1ccc(S(=O)(=O)C(F)(F)F)c2c1CC(F)(F)C2O` (stereo not drawn) [Compound 648], for which the pIC50 was 6.00 to 6.60.

With `N#Cc1cc(F)cc(Oc2ccc(S(=O)(=O)C3CCC3)c3c2CCC3O)c1` (stereo not drawn) [Compound 208], the pIC50 was < 6.00.

In the case of `Cc1ccc(Cl)cc1Oc1ccc(S(=O)(=O)C(F)(F)F)cc1Br` [Compound 174], the pIC50 is < 6.00.

`CS(=O)(=O)c1ccc(Oc2ccc(F)c(C#N)c2)c2c1[C@H](O)C(F)(F)[C@@H]2F` [Compound 327]: the pIC50 is > 7.30.

`O=C(O)Cc1ccc(S(=O)(=O)C(F)(F)F)c2c1CC[C@H]2O` [Compound 524, (R)-2-(1-hydroxy-7-((trifluoromethyl)sulfonyl)-2,3-dihydro-1H-inden-4-yl)acetic acid]: the negative logarithm of the IC50 (pIC50) is < 6.00.

With `CS(=O)(=O)c1ccc(Oc2cncc(C#N)c2)c2c1[C@H](O)[C@H](F)[C@@H]2F` [Compound 333], the pIC50 was 6.60 to 7.30.

On to `CC(C)Oc1ccc(S(=O)(=O)C(F)(F)F)c2c1CCC2O` (stereo not drawn) [Compound 592], for which the pIC50 is < 6.00.

Turning to `O=S(=O)(c1ccc(CCCO)c2c1C(O)CC2)C(F)(F)F` (stereo not drawn) [Compound 522, 4-(3-hydroxypropyl)-7-((trifluoromethyl)sulfonyl)-2,3-dihydro-1H-inden-1-ol], the pIC50 was 6.00 to 6.60.

Consider `C=CCN=S(=O)(c1ccc(Oc2cc(F)cc(C#N)c2)c2c1[C@H](O)C(F)(F)C2)C(F)(F)F` (stereo partly drawn) [Compound 308], for which the pIC50 was 6.60 to 7.30.

With `N#Cc1ccc(F)c2c1CC(F)(F)C2O` (stereo not drawn) [Compound 519], the pIC50 was < 6.00.

For the compound `N#Cc1cc(F)cc(Oc2ccc3c(c2Br)C(=O)C(F)(F)S3(=O)=O)c1` [Compound 393], the pIC50 was < 6.00.

For the compound `CS(=O)(=NC#N)c1ccc(Oc2cncc(C#N)c2)c2c1[C@@H](O)C(F)(F)[C@@H]2F` (stereo partly drawn) [Compound 320], the pIC50 was < 6.00.

For `N#Cc1cc(S(=N)(=O)C(F)(F)F)ccc1Oc1cc(F)cc(Cl)c1` (stereo not drawn) [Compound 72], the pIC50 is 6.00 to 6.60.

With `CS(=O)(=O)c1ccc(Oc2cc(F)cc(Cl)c2)c(C#N)c1` [Compound 139], the pIC50 is < 6.00.

Take `NS(=O)(=O)c1ccc(Oc2cncc(F)c2)c2c1[C@H](O)C(F)(F)[C@@H]2F` [Compound 341]: the pIC50 was > 7.30.

For `C/C=C/c1c(S(=O)(=O)C(F)F)ccc(Oc2cc(F)cc(C#N)c2)c1C#N` [Compound 178], the pIC50 was 6.00 to 6.60.

Consider `CNC(=O)C(C)Oc1ccc(S(=O)(=O)C(F)(F)F)c2c1CC(F)(F)C2O` (stereo not drawn) [Compound 645], for which the pIC50 was < 6.00.

On to `COc1ccc(I)c2c1CC(F)(F)C2O` (stereo not drawn) [Compound 679], for which the pIC50 was < 6.00.

For `O=S(=O)(c1ccc(OC2CCCNC2)c2c1[C@H](O)C(F)(F)C2)C(F)(F)F` (stereo partly drawn) [Compound 797], the pIC50 is < 6.00.

As to `CN(C)CCOc1ccc(S(=O)(=O)C(F)(F)F)c2c1CC(F)(F)C2O` (stereo not drawn) [Compound 641], the pIC50 was < 6.00.

Consider `Fc1cc(Cl)cc(Oc2ccc(C(F)(F)F)c(Cl)c2Br)c1` [Compound 97], for which the pIC50 is < 6.00.

Consider `COCCCOc1ccc(S(=O)(=O)C(F)(F)F)c2c1CCC2O` (stereo not drawn) [Compound 600], for which the pIC50 was < 6.00.

Take `O=S(=O)(c1ccc(Oc2cc(F)cc(Cl)c2)c(Cl)c1CNC1CCCOC1)C(F)F` (stereo not drawn) [Compound 49]: the pIC50 was < 6.00.

Take `N#Cc1cncc(Oc2ccc3c(c2Br)[C@@H](O)CS3(=O)=O)c1` [Compound 420]: the pIC50 is < 6.00.

On to `N#Cc1cc(F)cc(Oc2ccc(S(N)(=O)=O)c3c2[C@@H](O)C(F)(F)[C@H]3O)c1` [Compound 337], for which the pIC50 is < 6.00.

As to `O[C@H]1c2c(OCC(F)F)ccc(C(F)(F)F)c2[C@@H](F)C1(F)F` [Compound 689], the pIC50 was < 6.00.

As for `Cn1cc(-c2ccc(S(=O)(=O)C(F)(F)F)c3c2CC(F)(F)[C@H]3O)cn1` [Compound 566], the pIC50 is < 6.00.

In the case of `O=S(=O)(c1ccc(Oc2ccc(Cl)c(Cl)c2)c(Br)c1)C(F)(F)F` [Compound 169], the pIC50 was < 6.00.

`CC1(Oc2ccc(S(=O)(=O)C(F)(F)F)c3c2CC(F)(F)[C@H]3O)COC1` [Compound 785]: the pIC50 is < 6.00.

Regarding `O=S(=O)(c1ccc(-c2ccc3cn[nH]c3c2)c2c1[C@H](O)C(F)(F)C2)C(F)(F)F` [Compound 568], the pIC50 is < 6.00.

For `Cc1n[nH]c(C)c1-c1ccc(S(=O)(=O)C(F)(F)F)c2c1CC(F)(F)[C@H]2O` [Compound 562], the pIC50 was < 6.00.

Turning to `O[C@H]1c2c(OCC(F)F)ccc(C(F)(F)F)c2[C@H](F)C1(F)F` [Compound 690], the negative logarithm of the IC50 (pIC50) is < 6.00.

For the compound `COc1ccc(-c2cn[nH]c2)c2c1CC(F)(F)C2O` (stereo not drawn) [Compound 680], the pIC50 is < 6.00.

As for `Cc1cc(Oc2ccc(S(=O)(=O)C(F)F)c3c2CC(F)(F)C3=O)ccc1F` [Compound 197], the pIC50 was 6.00 to 6.60.

`CS(=O)(=O)c1ccc(Oc2cncc(Br)c2)c2c1C(=O)C(F)(F)C2` [Compound 323]: the pIC50 was < 6.00.

With `C=C1CC(O)c2c(S(C)(=O)=O)ccc(Oc3cc(F)cc(Cl)c3)c21` (stereo not drawn) [Compound 280], the pIC50 was < 6.00.

Consider `O=S(=O)(c1cc(C(F)(F)F)ccc1Oc1cc(F)cc(Cl)c1)C(F)(F)F` [Compound 129], for which the negative-log IC50 (pIC50) is < 6.00.

In the case of `COc1ccc(S(=O)(=O)C(F)(F)F)c2c1CCC2O` (stereo not drawn) [Compound 588], the pIC50 was < 6.00.

Consider `O=S(=O)(c1ccc(-c2ccccc2O)c2c1[C@H](O)C(F)(F)C2)C(F)(F)F` [Compound 564], for which the negative logarithm of the IC50 (pIC50) was < 6.00.

`O=S(=O)(c1ccc(Cc2ccccc2)c2c1C(O)CC2)C(F)(F)F` (stereo not drawn) [Compound 510]: the pIC50 is < 6.00.

For the compound `O/N=C1/c2c(C(F)(F)F)ccc(OCCCF)c2[C@@H](F)C1(F)F` [Compound 700], the pIC50 is 6.60 to 7.30.

For `CN1CCC(Oc2ccc(S(=O)(=O)C(F)(F)F)c3c2CC(F)(F)C3O)C1` (stereo not drawn) [Compound 642], the pIC50 was < 6.00.

For `N#Cc1cc(F)cc(Oc2ccc3c(c2C#CCF)C(O)C(F)(F)S3(=O)=O)c1` (stereo not drawn) [Compound 410], the pIC50 was < 6.00.

On to `N#Cc1cncc(Oc2ccc(S(=O)(=O)CF)c3c2[C@@H](F)C(F)(F)[C@H]3O)c1` [Compound 344], for which the pIC50 was > 7.30.

`O=S(=O)(c1ccc(Cn2ccnn2)c2c1[C@H](O)C(F)(F)C2)C(F)(F)F` [Compound 536]: the negative logarithm of the IC50 (pIC50) is < 6.00.

As for `N#Cc1c(Oc2cc(F)cc(Cl)c2)ccc2c1CCS2(=O)=O` [Compound 351], the pIC50 is < 6.00.

Regarding `N#Cc1c(Oc2cc(F)cc(Cl)c2)ccc2c1[C@H](O)CS2(=O)=O` [Compound 407], the pIC50 is < 6.00.

With `CS(=O)(=O)c1ccc(O[C@H]2CC[C@H](C#N)CC2)c2c1[C@H](O)C(F)(F)[C@@H]2F` [Compound 757], the pIC50 was < 6.00.

`N#Cc1c(Oc2cc(F)cc(Cl)c2)ccc(S(=O)(=O)C(F)(F)F)c1NCCO` [Compound 154]: the pIC50 is < 6.00.

`O=S(=O)(CF)c1ccc(Oc2cc(F)cc(Cl)c2)c(Br)c1` [Compound 137]: the pIC50 was 6.00 to 6.60.

As for `CS(=O)(=O)c1ccc(Oc2cc(F)cc(C#N)c2)c2c1[C@H](O)CC2(F)F` [Compound 288], the negative logarithm of the IC50 (pIC50) is < 6.00.

Regarding `CC1(C)C[C@@H](O)C[C@H](c2ccc(S(=O)(=O)C(F)(F)F)c3c2CC(F)(F)[C@H]3O)C1` [Compound 552], the pIC50 was < 6.00.

For the compound `CS(=O)(=O)c1ccc(Oc2cc(F)cc(C#N)c2)c2c1[C@H](N)C(F)(F)[C@@H]2F` [Compound 346], the pIC50 is 6.00 to 6.60.

For `N#Cc1c(Oc2cc(F)cc(F)c2)ccc2c1C(O)(C(F)(F)F)CS2(=O)=O` (stereo not drawn) [Compound 448], the pIC50 was < 6.00.

For `C/C(=N\O)c1c(S(=O)(=O)C(F)(F)F)ccc(Oc2cc(F)cc(Cl)c2)c1Br` [Compound 106], the pIC50 is 6.00 to 6.60.

For the compound `O=C1c2c(ccc(Oc3cc(F)cc(Cl)c3)c2Br)S(=O)(=O)C12CC2` [Compound 404], the negative logarithm of the IC50 (pIC50) is < 6.00.

`CNS(=O)(=O)c1ccc(Oc2cc(F)cc(F)c2)c2c1C(O)CC2` (stereo not drawn) [Compound 211]: the pIC50 is < 6.00.

As for `NS(=O)(=O)c1ccc(Oc2cc(F)cc(F)c2)c2c1C(O)CC2` (stereo not drawn) [Compound 257], the pIC50 is < 6.00.

As for `O=S(=O)(c1ccc(OC2CCOCC2)c2c1C(O)CC2)C(F)(F)F` (stereo not drawn) [Compound 745], the pIC50 was < 6.00.
